Each structure is given as a SMILES string.

Consider 1 molecule from US12233047B2, “Pharmaceutical combination and use thereof” (ASCENTAGE PHARMA (SUZHOU) CO., LTD., priority 2019, dated 2025).

In the test the target is T1, FLT3 (K663Q) (Homo sapiens, UniProt P36888, K663Q).
T1 construct: host or cells: T7 phage in E. coli (BL21-derived) or HEK-293
T1 sequence (P36888 27-993 K663Q): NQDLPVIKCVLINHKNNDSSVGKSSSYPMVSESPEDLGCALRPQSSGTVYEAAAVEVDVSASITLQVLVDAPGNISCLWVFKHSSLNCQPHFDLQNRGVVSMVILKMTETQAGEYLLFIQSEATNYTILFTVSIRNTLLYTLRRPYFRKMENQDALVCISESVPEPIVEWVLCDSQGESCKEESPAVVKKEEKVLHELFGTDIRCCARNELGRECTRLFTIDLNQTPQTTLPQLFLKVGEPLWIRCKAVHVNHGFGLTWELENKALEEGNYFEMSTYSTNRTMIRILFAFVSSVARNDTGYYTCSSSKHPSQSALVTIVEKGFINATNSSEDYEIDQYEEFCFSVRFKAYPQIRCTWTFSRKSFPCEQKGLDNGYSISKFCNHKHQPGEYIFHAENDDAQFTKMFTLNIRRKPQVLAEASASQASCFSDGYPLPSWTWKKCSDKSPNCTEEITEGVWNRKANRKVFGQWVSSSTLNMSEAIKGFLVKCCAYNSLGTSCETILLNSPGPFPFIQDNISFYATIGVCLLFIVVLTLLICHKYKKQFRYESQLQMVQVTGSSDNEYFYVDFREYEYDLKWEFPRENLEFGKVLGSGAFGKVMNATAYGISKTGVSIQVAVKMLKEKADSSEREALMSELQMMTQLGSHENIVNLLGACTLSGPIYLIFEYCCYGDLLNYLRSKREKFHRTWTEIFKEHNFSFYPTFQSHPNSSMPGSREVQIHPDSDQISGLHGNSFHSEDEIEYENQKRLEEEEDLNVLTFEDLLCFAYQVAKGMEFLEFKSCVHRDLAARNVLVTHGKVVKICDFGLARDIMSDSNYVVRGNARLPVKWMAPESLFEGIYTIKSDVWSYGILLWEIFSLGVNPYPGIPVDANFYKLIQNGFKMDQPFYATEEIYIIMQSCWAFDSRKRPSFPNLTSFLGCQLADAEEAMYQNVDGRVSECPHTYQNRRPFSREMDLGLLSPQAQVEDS
Nature of the test: KINOMEscan kinase binding assay, FLT3 (K663Q). Here is the method:
The kinase assay was conducted using KINOMEscan™.
Kinase-tagged T7 phage strains were grown in parallel in 24-well blocks in an E. coli host derived from the BL21 strain. E. coli were grown to log-phase and infected with T7 phage from a frozen stock (multiplicity of infection=0.4) and incubated with shaking at 32° C. until lysis (90-150 minutes). The lysates were centrifuged (6,000×g) and filtered (0.2 μm) to remove cell debris. The remaining kinases were produced in HEK-293 cells and subsequently tagged with DNA for qPCR detection. Streptavidin-coated magnetic beads were treated with biotinylated small molecule ligands for 30 minutes at room temperature to generate affinity resins for kinase assays. The liganded beads were blocked with excess biotin and washed with blocking buffer (SeaBlock (Pierce), 1% BSA, 0.05% Tween 20, 1 mM DTT) to remove unbound ligand and to reduce non-specific phage binding. Binding reactions were assembled by combining kinases, liganded affinity beads, and test compound (Compound 23) in 1× binding buffer (20% SeaBlock, 0.17×PBS, 0.05% Tween 20, 6 mM DTT). Test compound were prepared as 40× stocks in 100% DMSO and directly diluted into the assay. All reactions were performed in polypropylene 384-well plates in a final volume of 0.04 ml. […] The kinase concentration in the eluates was measured by qPCR. […]

With `Cc1ccc(C(=O)Nc2ccc(CN3CCN(C)CC3)c(C(F)(F)F)c2)cc1C#Cc1cnc2[nH]ncc2c1` [Compound 23, 3-(2-(1H-pyrazolo[3,4-b]pyridin-5-yl)ethynyl)-4-methyl-N-(4-((4-methylpiperazin-1-yl)methyl)-3-(trifluoromethyl)phenyl)benzamide], for the setting “10 nM”, the “% Ctrl@10 nM” value is reported as 5 % Ctrl. For the same molecule, the “% Ctrl@100 nM” value (100 nM) turned out to be 0.6 % Ctrl.
